Experimental findings from patent publication US20230355597A1, “COMPOUNDS, COMPOSITIONS, AND METHODS FOR THE TREATMENT AND PREVENTION OF AVIAN PATHOGENIC E. COLI (APEC)” (OHIO STATE INNOVATION FOUNDATION, priority 2018, published 2023) are described below.

The test system of experiment [1] is AI-2 activity of APEC O18. The experiment can be described thus: AI-2 bioluminescence indicator assay (V. harveyi BB170). The settings on record: APEC O18, 100 µM.
The subject of experiment [2] is AI-2 activity of APEC O115. The description is as above. The settings on record: APEC O115, 100 µM.
The test system of the next experiment is APEC O2 in HD-11 cells. The experiment can be described thus: Intracellular survival assay (AI-2 inhibitors). Particulars: O2, HD-11, 100 µM, 6 h.
Experiment [3] relates to Rif^r APEC O78. Kind of experiment: In vivo screening of quorum sensing inhibitors in APEC infected broiler chickens. Particulars: for reduction in chicken mortality: DMSO control mortality normalized to 100%; for Mortality rate (%): oral gavage once a day, day 4 to day 8, DMSO control 66.7%; for Reduction in APEC lesions severity, Air-sacs (%) / Reduction in APEC lesions severity, Heart (%) / Reduction in APEC lesions severity, Liver (%) / Reduction in APEC lesions severity, Lung (%): vs DMSO treated control.

In experiment [4] the test system is AI-2 activity of APEC O15. The experiment can be described thus: AI-2 bioluminescence indicator assay (V. harveyi BB170). The settings on record: APEC O15, 100 µM.
For experiment [5], the system named is QS and virulence associated genes of APEC O78. Kind of experiment: qRT-PCR of QS-regulated and virulence factors genes. It counts as cell-based, avian pathogenic Escherichia coli (APEC). The settings on record: 100 µM, 10 h. On the procedure:
Quantitative real-time reverse transcription PCR (qRT-PCR). […] APEC O78 was grown in the presence of 100 µM of each compound in a 96-well plate at 37° C. for 10 h. APEC O78 culture treated with 1 µL of 100% DMSO was used as […]. Total RNA was extracted from duplicate wells for each compound (200 µL) using a miRNeasy Mini Kit (Qiagen). RNA quality and quantity was determined by nanodrop 2000 C spectrophotometer (Thermo scientific). Traces of DNA was removed using Genomic DNA removal mix (Qiagen). Approximately, 5 µg of purified RNA was used to synthesize cDNA using the Qiagen RT^2 First Strand Kit (Qiagen). The qRT-PCR was performed using SensiMix™ SYBER® Hi-Rox qPCR Master Mix (Bioline) according to manufacturer instructions in a realplex^2 mastercycler (Eppendorf) with 55° C. annealing temperature. Gene-specific primers were designed using PrimerQuest Tool and obtained from integrated DNA technologies (IDT). The data were normalized to the house-keeping gene, glyceraldehyde-3-phosphate dehydrogenase (GAPDH). The relative fold change was calculated using the ΔΔCt method. Three independent experiments were conducted.

The test system of experiment [6] is AI-2 activity of APEC O109. The experiment can be described thus: AI-2 bioluminescence indicator assay (V. harveyi BB170). Particulars: APEC O109, 100 µM.
The next experiment relates to AI-2 activity of APEC O1. The description is as above. Particulars: APEC O1, 100 µM.
The subject of experiment [7] is Rif^r APEC O78. The experiment can be described thus: Wax moth (Galleria mellonella) larva infection model (AI-2 inhibitors). Particulars: for larval death: 48 h post treatment.
The subject of experiment [8] is AI-2 activity of APEC O78. Kind of experiment: AI-2 bioluminescence indicator assay (V. harveyi BB170). Particulars: APEC O78, 100 µM.
The test system of the next experiment is AI-2 activity of APEC O2. Described as above. The settings on record: APEC O2, 100 µM.
In experiment [9] the test system is AI-2 activity of APEC O35. The description is as above. Particulars: APEC O35, 100 µM.
Another experiment relates to AI-2 activity of APEC O8. The experiment is described as above. The settings on record: APEC O8, 100 µM.

Consider `Cc1ccc(CN2CCN(CCCc3ccccc3)CC2)cc1` [C5], for which the “Inhibition % of AI-2 activity” value in [1] stood at 61%; in [2] it was 63%; in experiment [4] it was 45%; in [6] it was 69%; in the experiment with AI-2 activity of APEC O1 it was 46%; in experiment [8] it was 83%. The entries for the “Inhibition % of AI-2 activity” value (in the experiment on AI-2 activity of APEC O2; in experiment [9]; in the experiment on AI-2 activity of APEC O8) were 89%, 68% and 18%, respectively. For the same molecule, the “clearance of intracellular APEC” value in the experiment with APEC O2 in HD-11 cells is 100%. In addition, the “reduction of intracellular survival” value in the experiment on APEC O2 in HD-11 cells (vs DMSO) is 3.3 logs. In addition, in the experiment with Rif^r APEC O78 [3], the “reduction in chicken mortality” value was 100%. Further, the “average lesion score reduction” value in the experiment with Rif^r APEC O78 [3] (liver, heart, lung and airsac, vs DMSO) is 2.1-2.3. In addition, the “reduction of bacterial load in internal organs” value in the experiment on Rif^r APEC O78 [3] (liver, lung, heart, and kidney, vs DMSO control, 'up to') is 5.2-6.1 log CFU/g. Further, in the experiment on Rif^r APEC O78 [3], the “Mortality rate (%)” value is listed as 0%. The “Reduction in APEC lesions severity, Air-sacs (%)” value with Rif^r APEC O78 [3] amounted to 93.3%. The “Reduction in APEC lesions severity, Heart (%)” value in the experiment with Rif^r APEC O78 [3] was 87.5%. Besides, the “Reduction in APEC lesions severity, Liver (%)” value in the experiment on Rif^r APEC O78 [3] amounted to 81.8%. Also, the “Reduction in APEC lesions severity, Lung (%)” value in the experiment on Rif^r APEC O78 [3] is on record as 88.9%. Further, the “effect on body weight gain” value in the experiment with Rif^r APEC O78 [3] (vs non-treated and non-infected control group) is given as “increased BWG”. In addition, the “expression of fliP” value in [5] is “down-regulated”. In addition, in [5], the expression of fpr entry is given as “down-regulated”. Moreover, in the experiment with Rif^r APEC O78 [7], the larval death result was “no larval death”.

Consider `Cc1ccccc1N1CCN(C2CCCN(C(=O)c3ccc(F)c(Cl)c3)C2)CC1` (stereo not shown) [C2, 1-[1-{3-chloro-4-fluorbenzoyl)-3-piperdinyl]-4-(2-methylphenyl)piperazine], for which the “Inhibition % of AI-2 activity” value is recorded as 43% in experiment [1]; 52% in experiment [2]; 27% in experiment [4]; 57% in experiment [6]; 64% with AI-2 activity of APEC O1; 92% in [8]. Besides, the “Inhibition % of AI-2 activity” value in the experiment with AI-2 activity of APEC O2 is on record as 96%; in experiment [9], 55%; in the experiment on AI-2 activity of APEC O8, 20%. In the experiment with Rif^r APEC O78 [3], the “reduction in chicken mortality” value is on record as 50%. Besides, the “Mortality rate (%)” value with Rif^r APEC O78 [3] is recorded as 33.3%. Also, the “Reduction in APEC lesions severity, Air-sacs (%)” value with Rif^r APEC O78 [3] is 63.3%. Moreover, the “Reduction in APEC lesions severity, Heart (%)” value in the experiment on Rif^r APEC O78 [3] came to 37.5%. Besides, the “Reduction in APEC lesions severity, Liver (%)” value in the experiment with Rif^r APEC O78 [3] was determined as 45.5%. The “Reduction in APEC lesions severity, Lung (%)” value in the experiment with Rif^r APEC O78 [3] amounted to 88.9%. In addition, the larval death entry in the experiment with Rif^r APEC O78 [7] is listed as “no larval death”. Also, in the experiment on Rif^r APEC O78 [7] (72 h), the “clearance of APEC in live larvae” value came out at 100%.
